Experimental data from the kinase profiling compilation of Christmann-Franck et al. (2016).

What was measured:
Assay in all cases: radiometric filter-binding kinase assay, Kinase HotSpot
Settings in all cases: compound 0.5 µM; ATP 10 µM
[1] = target: MAPK10 (human) (UniProt P53779)
[2] = target: MAPK11 (human) (UniProt Q15759)
[3] = target: FLT3 (human) (UniProt P36888)
[4] = target: CDK6 CCND1 (human) (UniProt Q00534+P24385)
[5] = target: EPHA7 (human) (UniProt Q15375)
[6] = target: GRK5 (human) (UniProt P34947)
[7] = target: ACVR1B (human) (UniProt P36896)
[8] = target: CDK9 CCNK (human) (UniProt O75909+P50750)
[9] = target: PRKD3 (human) (UniProt O94806)
[10] = target: PRKX (human) (UniProt P51817)
[11] = target: SRPK3 (human) (UniProt Q9UPE1)
[12] = target: MAPKAPK5 (human) (UniProt Q8IW41)
[13] = target: CHUK (human) (UniProt O15111)
[14] = target: CDK1 CCNA2 (human) (UniProt P06493+P20248)
[15] = target: FYN (human) (UniProt P06241)
[16] = target: RPS6KA5 KD2 (human) (UniProt O75582)
[17] = target: GRK4 (human) (UniProt P32298)
[18] = target: FER (human) (UniProt P16591)
[19] = target: RPS6KA6 KD1 KD2 (human) (UniProt Q9UK32)
[20] = target: PAK3 (human) (UniProt O75914)
[21] = target: STK24 (human) (UniProt Q9Y6E0)
[22] = target: FRK (human) (UniProt P42685)
[23] = target: CDK2 CCNE1 (human) (UniProt P24941+P24864)
[24] = target: ROS1 (human) (UniProt P08922)
[25] = target: ERBB2 (human) (UniProt P04626)
[26] = target: PRKCB1 (human) (UniProt P05771)
[27] = target: GRK6 (human) (UniProt P43250)
[28] = target: ALK (human) (UniProt Q9UM73)
[29] = target: PDPK1 (human) (UniProt O15530)
[30] = target: CHEK2 (human) (UniProt O96017)
[31] = target: PRKG2 (human) (UniProt Q13237)
[32] = target: MAPK12 (human) (UniProt P53778)
[33] = target: ROCK2 (human) (UniProt O75116)
[34] = target: CAMK2B (human) (UniProt Q13554)
[35] = target: TTK (human) (UniProt P33981)
[36] = target: CSNK1E (human) (UniProt P49674)
[37] = target: AXL (human) (UniProt P30530)
[38] = target: GSG2 (human) (UniProt Q8TF76)
[39] = target: MAPK1 (human) (UniProt P28482)
[40] = target: MAPK14 (human) (UniProt Q16539)
[41] = target: LCK (human) (UniProt P06239)
[42] = target: DAPK1 (human) (UniProt P53355)

EPHA7 (human), sequence (Q15375 whole entry, looked up): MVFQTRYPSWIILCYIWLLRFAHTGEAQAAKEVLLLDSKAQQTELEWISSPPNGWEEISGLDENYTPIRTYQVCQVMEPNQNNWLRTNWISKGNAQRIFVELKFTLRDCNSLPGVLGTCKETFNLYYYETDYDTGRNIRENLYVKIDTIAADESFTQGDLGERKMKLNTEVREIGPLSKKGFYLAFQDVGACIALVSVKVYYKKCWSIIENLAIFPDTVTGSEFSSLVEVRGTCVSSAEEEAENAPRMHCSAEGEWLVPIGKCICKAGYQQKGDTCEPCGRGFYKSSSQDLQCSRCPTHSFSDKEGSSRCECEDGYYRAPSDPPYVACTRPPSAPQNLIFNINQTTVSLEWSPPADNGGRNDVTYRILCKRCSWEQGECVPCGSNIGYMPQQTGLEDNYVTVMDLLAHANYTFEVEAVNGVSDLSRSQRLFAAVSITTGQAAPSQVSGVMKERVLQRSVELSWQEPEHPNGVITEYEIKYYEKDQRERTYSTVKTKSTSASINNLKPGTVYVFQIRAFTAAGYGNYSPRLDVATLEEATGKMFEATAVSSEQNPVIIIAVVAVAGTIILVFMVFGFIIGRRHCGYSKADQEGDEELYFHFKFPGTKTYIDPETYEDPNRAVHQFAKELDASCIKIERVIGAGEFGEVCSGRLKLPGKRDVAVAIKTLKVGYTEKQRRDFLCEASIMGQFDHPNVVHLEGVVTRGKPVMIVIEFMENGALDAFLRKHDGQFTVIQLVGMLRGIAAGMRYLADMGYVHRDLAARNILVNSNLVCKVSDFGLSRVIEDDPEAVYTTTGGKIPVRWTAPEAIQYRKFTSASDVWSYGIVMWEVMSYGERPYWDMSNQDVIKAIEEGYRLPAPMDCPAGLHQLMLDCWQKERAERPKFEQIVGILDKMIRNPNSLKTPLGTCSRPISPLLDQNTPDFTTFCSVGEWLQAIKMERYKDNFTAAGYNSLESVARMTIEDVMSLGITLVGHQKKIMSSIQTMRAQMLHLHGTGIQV
ACVR1B (human), sequence (P36896 whole entry, looked up): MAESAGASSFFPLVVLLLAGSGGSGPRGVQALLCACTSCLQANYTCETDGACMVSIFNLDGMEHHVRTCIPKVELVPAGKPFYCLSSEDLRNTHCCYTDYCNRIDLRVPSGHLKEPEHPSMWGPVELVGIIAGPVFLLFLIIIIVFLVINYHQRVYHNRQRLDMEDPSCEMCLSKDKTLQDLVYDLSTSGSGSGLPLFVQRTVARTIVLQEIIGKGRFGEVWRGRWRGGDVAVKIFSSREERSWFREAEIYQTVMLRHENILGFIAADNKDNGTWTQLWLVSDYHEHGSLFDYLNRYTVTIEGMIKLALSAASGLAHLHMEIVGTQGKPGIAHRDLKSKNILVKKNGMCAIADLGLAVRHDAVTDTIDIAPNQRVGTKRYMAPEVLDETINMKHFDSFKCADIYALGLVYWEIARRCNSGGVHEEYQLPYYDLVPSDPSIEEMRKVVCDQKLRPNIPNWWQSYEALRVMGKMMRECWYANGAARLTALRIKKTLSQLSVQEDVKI
AXL (human), sequence (P30530 whole entry, looked up): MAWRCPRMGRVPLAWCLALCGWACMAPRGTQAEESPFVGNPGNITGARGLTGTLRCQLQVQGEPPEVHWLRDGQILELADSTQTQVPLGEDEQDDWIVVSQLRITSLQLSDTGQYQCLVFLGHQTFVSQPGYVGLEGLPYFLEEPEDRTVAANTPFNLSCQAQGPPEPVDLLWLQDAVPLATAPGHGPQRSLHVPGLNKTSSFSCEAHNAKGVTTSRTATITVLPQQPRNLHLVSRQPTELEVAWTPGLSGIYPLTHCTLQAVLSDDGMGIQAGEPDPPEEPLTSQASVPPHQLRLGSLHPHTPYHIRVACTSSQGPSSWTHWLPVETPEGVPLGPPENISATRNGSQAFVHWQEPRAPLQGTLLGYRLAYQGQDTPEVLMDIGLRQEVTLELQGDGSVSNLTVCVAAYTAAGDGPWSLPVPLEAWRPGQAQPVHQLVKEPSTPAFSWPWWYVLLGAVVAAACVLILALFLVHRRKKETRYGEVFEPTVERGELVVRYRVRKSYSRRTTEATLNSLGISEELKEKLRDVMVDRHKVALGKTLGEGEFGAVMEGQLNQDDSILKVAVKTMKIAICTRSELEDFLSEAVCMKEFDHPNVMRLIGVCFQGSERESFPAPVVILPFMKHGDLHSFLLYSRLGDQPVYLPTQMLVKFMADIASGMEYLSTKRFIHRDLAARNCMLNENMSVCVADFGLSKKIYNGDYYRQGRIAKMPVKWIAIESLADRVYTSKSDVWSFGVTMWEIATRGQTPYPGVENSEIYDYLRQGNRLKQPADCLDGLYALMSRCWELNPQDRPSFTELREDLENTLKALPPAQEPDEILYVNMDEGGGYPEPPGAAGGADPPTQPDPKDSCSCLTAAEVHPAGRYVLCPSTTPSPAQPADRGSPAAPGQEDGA
LCK (human), sequence (P06239 whole entry, looked up): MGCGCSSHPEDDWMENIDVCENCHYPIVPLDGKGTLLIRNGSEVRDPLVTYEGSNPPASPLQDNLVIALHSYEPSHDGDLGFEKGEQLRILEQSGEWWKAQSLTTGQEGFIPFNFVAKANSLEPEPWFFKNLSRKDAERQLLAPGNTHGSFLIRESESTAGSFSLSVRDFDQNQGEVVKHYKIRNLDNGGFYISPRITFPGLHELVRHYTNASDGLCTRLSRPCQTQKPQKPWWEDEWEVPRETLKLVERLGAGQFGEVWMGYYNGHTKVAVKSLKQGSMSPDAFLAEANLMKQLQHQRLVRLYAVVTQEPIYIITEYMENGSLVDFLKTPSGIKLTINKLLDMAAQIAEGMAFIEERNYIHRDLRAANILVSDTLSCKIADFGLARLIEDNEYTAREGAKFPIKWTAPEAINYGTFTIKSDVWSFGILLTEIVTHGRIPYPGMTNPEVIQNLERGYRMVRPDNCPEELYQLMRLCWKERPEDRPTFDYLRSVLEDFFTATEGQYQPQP
GRK4 (human), sequence (P32298 whole entry, looked up): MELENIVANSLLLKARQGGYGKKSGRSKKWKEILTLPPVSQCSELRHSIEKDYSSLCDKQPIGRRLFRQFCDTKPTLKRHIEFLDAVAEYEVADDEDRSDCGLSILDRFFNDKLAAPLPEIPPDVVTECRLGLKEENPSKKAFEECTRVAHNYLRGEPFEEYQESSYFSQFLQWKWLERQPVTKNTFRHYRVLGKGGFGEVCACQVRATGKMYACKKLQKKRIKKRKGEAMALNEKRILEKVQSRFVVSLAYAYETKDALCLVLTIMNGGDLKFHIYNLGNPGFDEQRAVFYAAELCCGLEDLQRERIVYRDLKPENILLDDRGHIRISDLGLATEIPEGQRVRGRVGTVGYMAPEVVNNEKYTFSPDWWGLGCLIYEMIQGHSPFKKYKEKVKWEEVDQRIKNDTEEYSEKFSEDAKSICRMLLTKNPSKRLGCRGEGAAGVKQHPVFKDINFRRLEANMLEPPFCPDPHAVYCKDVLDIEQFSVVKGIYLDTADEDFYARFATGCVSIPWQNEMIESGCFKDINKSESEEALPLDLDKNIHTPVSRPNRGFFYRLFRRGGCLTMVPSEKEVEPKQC
PRKX (human), sequence (P51817 whole entry, looked up): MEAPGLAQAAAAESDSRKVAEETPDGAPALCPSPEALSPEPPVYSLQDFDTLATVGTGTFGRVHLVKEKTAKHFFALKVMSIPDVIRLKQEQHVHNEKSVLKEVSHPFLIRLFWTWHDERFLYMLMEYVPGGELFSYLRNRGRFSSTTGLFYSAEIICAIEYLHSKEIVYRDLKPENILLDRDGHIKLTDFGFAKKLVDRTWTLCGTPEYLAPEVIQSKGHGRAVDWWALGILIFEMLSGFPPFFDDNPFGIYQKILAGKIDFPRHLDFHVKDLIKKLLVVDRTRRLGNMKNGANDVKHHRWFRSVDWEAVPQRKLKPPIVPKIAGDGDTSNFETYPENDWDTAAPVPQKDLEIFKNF
CDK9 CCNK (human), sequence (O75909 whole entry, looked up): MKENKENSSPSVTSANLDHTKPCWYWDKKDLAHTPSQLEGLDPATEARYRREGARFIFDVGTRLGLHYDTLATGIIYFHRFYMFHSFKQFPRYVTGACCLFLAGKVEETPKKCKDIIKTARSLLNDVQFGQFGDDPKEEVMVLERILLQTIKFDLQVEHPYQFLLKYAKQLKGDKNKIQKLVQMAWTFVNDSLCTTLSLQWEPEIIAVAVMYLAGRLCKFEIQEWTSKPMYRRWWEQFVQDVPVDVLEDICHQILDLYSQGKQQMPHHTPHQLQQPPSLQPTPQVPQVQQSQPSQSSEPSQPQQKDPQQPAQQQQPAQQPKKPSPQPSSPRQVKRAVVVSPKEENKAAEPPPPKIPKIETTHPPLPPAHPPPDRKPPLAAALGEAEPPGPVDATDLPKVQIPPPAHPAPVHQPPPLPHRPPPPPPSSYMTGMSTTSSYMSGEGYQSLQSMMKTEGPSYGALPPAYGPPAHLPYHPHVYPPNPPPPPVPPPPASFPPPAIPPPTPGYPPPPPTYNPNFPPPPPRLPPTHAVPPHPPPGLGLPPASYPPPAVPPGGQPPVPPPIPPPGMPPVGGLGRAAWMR
CDK9 CCNK (human), sequence (P50750 whole entry, looked up): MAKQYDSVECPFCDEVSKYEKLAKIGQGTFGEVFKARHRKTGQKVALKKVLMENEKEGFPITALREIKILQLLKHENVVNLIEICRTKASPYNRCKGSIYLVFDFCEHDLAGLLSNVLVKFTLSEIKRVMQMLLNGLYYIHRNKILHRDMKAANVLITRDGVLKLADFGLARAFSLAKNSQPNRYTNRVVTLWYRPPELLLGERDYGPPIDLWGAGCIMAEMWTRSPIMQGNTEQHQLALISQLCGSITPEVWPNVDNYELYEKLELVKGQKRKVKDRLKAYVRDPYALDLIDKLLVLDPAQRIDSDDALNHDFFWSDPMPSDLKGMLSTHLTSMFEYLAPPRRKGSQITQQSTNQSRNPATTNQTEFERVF

O=C(O)/C=C/c1cc(Br)c(Br)c(Br)c1Br
residual activity [1]: 96.3%
residual activity [2]: 92.7%
residual activity [3]: 79%
residual activity [4]: 102%
residual activity [5]: 94.1%
residual activity [6]: 104%
residual activity [7]: 103%
residual activity [8]: 65.3%
residual activity [9]: 87.9%
residual activity [10]: 96%
residual activity [11]: 66.9%
residual activity [12]: 72.6%
residual activity [13]: 89.5%
residual activity [14]: 88.6%
residual activity [15]: 97.9%
residual activity [16]: 88.3%
residual activity [17]: 101%
residual activity [18]: 96.6%
residual activity [19]: 86.9%
residual activity [20]: 100%
residual activity [21]: 86.1%
residual activity [22]: 102%
residual activity [23]: 89.4%
residual activity [24]: 94%
residual activity [25]: 95.4%
residual activity [26]: 95.5%
residual activity [27]: 97.2%
residual activity [28]: 98.6%
residual activity [29]: 96.2%
residual activity [30]: 77.5%
residual activity [31]: 80.3%
residual activity [32]: 103%
residual activity [33]: 94.2%
residual activity [34]: 56.1%
residual activity [35]: 98.1%
residual activity [36]: 83.6%
residual activity [37]: 90.9%
residual activity [38]: 88.4%
residual activity [39]: 98.5%
residual activity [40]: 99.5%
residual activity [41]: 99.3%
residual activity [42]: 73.7%

CN(C)C[C@H]1CCn2c(c(C3=C(c4cn(C)c5ccccc45)C(=O)NC3=O)c3ccccc32)C1
residual activity [1]: 101%
residual activity [2]: 109%
residual activity [3]: 37.1%
residual activity [4]: 70.5%
residual activity [5]: 96.9%
residual activity [6]: 56.2%
residual activity [7]: 98.2%
residual activity [8]: 43.5%
residual activity [9]: 93.6%
residual activity [10]: 97.8%
residual activity [11]: 100%
residual activity [12]: 95.4%
residual activity [13]: 103%
residual activity [14]: 67.8%
residual activity [15]: 92.8%
residual activity [16]: 24.8%
residual activity [17]: 76.4%
residual activity [18]: 69.2%
residual activity [19]: 2.94%
residual activity [20]: 102%
residual activity [21]: 66.5%
residual activity [22]: 103%
residual activity [23]: 64.4%
residual activity [24]: 87.1%
residual activity [25]: 95.9%
residual activity [26]: 3.71%
residual activity [27]: 66.4%
residual activity [28]: 99.6%
residual activity [29]: 97%
residual activity [30]: 95%
residual activity [31]: 90.7%
residual activity [32]: 102%
residual activity [33]: 98.9%
residual activity [34]: 96.9%
residual activity [35]: 105%
residual activity [36]: 99.7%
residual activity [37]: 99.3%
residual activity [38]: 100%
residual activity [39]: 101%
residual activity [40]: 108%
residual activity [41]: 96.5%
residual activity [42]: 94.1%

O=C(Nc1cccc(Nc2cc(Nc3cccc(C(F)(F)F)c3)ncn2)c1)C1CC1
residual activity [1]: 83.4%
residual activity [2]: 97.2%
residual activity [3]: 97.9%
residual activity [4]: 99.1%
residual activity [5]: 101%
residual activity [6]: 109%
residual activity [7]: 101%
residual activity [8]: 102%
residual activity [9]: 96.9%
residual activity [10]: 107%
residual activity [11]: 103%
residual activity [12]: 101%
residual activity [13]: 95.6%
residual activity [14]: 97.9%
residual activity [15]: 100%
residual activity [16]: 103%
residual activity [17]: 104%
residual activity [18]: 102%
residual activity [19]: 96.6%
residual activity [20]: 101%
residual activity [21]: 97.1%
residual activity [22]: 102%
residual activity [23]: 96.7%
residual activity [24]: 93.5%
residual activity [25]: 82.5%
residual activity [26]: 93.2%
residual activity [27]: 98.3%
residual activity [28]: 112%
residual activity [29]: 100%
residual activity [30]: 99.5%
residual activity [31]: 103%
residual activity [32]: 89.2%
residual activity [33]: 99.2%
residual activity [34]: 105%
residual activity [35]: 98.7%
residual activity [36]: 98.1%
residual activity [37]: 98.7%
residual activity [38]: 96.4%
residual activity [39]: 101%
residual activity [40]: 98.2%
residual activity [41]: 100%
residual activity [42]: 94.7%

CCN(CC)CCCCN1c2ccccc2Oc2ccc(Cl)cc21
residual activity [1]: 104%
residual activity [2]: 103%
residual activity [3]: 99%
residual activity [4]: 98%
residual activity [5]: 102%
residual activity [6]: 103%
residual activity [7]: 105%
residual activity [8]: 105%
residual activity [9]: 97.1%
residual activity [10]: 103%
residual activity [11]: 104%
residual activity [12]: 95.9%
residual activity [13]: 98.8%
residual activity [14]: 99.3%
residual activity [15]: 107%
residual activity [16]: 107%
residual activity [17]: 102%
residual activity [18]: 102%
residual activity [19]: 109%
residual activity [20]: 116%
residual activity [21]: 90%
residual activity [22]: 98.4%
residual activity [23]: 89.4%
residual activity [24]: 95.3%
residual activity [25]: 96.6%
residual activity [26]: 101%
residual activity [27]: 88.4%
residual activity [28]: 106%
residual activity [29]: 111%
residual activity [30]: 105%
residual activity [31]: 94.4%
residual activity [32]: 97.4%
residual activity [33]: 104%
residual activity [34]: 107%
residual activity [35]: 104%
residual activity [36]: 112%
residual activity [37]: 95.2%
residual activity [38]: 104%
residual activity [39]: 84.7%
residual activity [40]: 95.8%
residual activity [41]: 94.6%
residual activity [42]: 76.6%
